The source of these data is US11230542B2, “Inhibitors of integrated stress response pathway” (Praxis Biotech LLC, priority 2017, dated 2022).

For one assay, the system named is CHO cells. Description: Protein translation assay (puromycin incorporation in CHO cells, unstressed or Tg-stressed). The assay is classed as cell-based, Chinese hamster. Particulars: Cricetulus griseus, media alone 100%. The method in brief: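 CHO cells pretreated 2 h with 1 μM compound (unstressed), or 1 h with 100 nM or 1 μM then co-treated with 300 nM Tg. Pulse-labelled with 10 μg/ml puromycin for 30 min, then anti-puromycin western blot with densitometry. Unstressed values normalized to media alone (100%); stressed recovery scaled between media alone (100%) and Tg alone (0%).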

Assay [1] relates to 19-month old male C57Bl/6J mice. Nature of the assay: Learning memory in aged mice (8-arm radial water maze, hippocampal ATF4). Particulars: 5 mg/kg intraperitoneally, versus vehicle. The assay is classed as in vivo, mouse. The text has this:
Wild type 19-month old male C57Bl/6J mice were used in an 8-arm radial water maze (RAWM) to measure the hippocampal-mediated learning memory. The maze involved a pool 118.5 cm in diameter and 25 cm high with 8 arms, each 41 cm in length, and an escape platform that could be moved. The pool was filled with water that was rendered opaque by adding white paint (Crayola, 54-2128-053). The escape platform remains hidden during the experiment. Visual cues were placed around the room such that they were visible to animals exploring the maze. […]
Behavioral tests were recorded and scored using a video tracking and analysis setup (Ethovision XT 8.5, Noldus Information Technology). The program automatically analyzed the number of incorrect arm entries (termed number of errors) made per trial. […]
At the end of the behavioral test, animals were sacrificed and the hippocampi were extracted and immediately frozen in liquid nitrogen and then stored at −80° C. […] Protein concentration in supernatants was determined using BCA Protein Assay Kit (Pierce). […]
ATF4 (11815) antibody (Cell Signaling Technologies) and β-actin (Sigma-Aldrich) antibodies were used as primary antibodies. […] Quantification of protein bands was done by densitometry using ImageJ software.

The test system of the next assay is fasted Balb/c mice. Nature of the assay: Fasting-induced muscle atrophy. Format: in vivo, mouse. Particulars: 10 mg/kg oral. The method, then:
Wild type eight-weeks-old male Balb/c mice obtained from the vivarium Fundacion Ciencia & Vida Chile (Santiago, Chile) were used. Mice were housed in independent plastic cages in a room maintained at 25° C. with a 12-h:12-h light:dark cycle.
Twenty-four hours before and during the 2 days of fasted procedures, animals received oral administration via feeding tubes (15 gauge) of vehicle (50% Polyethylene glycol 400 (Sigma-Aldrich P3265) in distilled water or 10 mg/kg of compound 3 formulated in vehicle solution.
After 2 days of fasting the animals were sacrificed and muscles were removed from both hindlimbs. Mice with feed and water ad libitum were used as control.
For in vivo measurements of protein synthesis, puromycin (Sigma-Aldrich, P8833) was prepared at 0.04 μmol/g body weight in a volume of 200 μL of PBS, and subsequently administered into the animals via IP injection, 30 min prior to muscle collection.
Upon collection, muscles were immediately frozen in liquid nitrogen and then stored at −80° C. […] Protein concentration in supernatants was determined using BCA Protein Assay Kit (Pierce). […]
Puromycin (12D10) (Merck Millipore) and β-actin (Sigma-Aldrich) antibodies were used as primary antibodies. […] Quantification of protein bands was done by densitometry using ImageJ software. […]

Molecules are shown by their SMILES. Where two headings read alike, the source gives them in different places.

`O=C(COc1ccc(Cl)cc1)N[C@H]1CC[C@H](NC[C@@H](O)COc2ccc(Cl)cc2)CC1` (single isomer, unassigned) [Compound 3, (+)-2-(4-chlorophenoxy)-N-(4-((3-(4-chlorophenoxy)-2-hydroxypropyl)amino)cyclohexyl)acetamide]: the activity at 0.1 µM in the assay on CHO cells (CHO cells stressed with 300 nM Tg, Tg alone 0%, read-out: % Recovery of protein expression (100 nM test compound)) was found to be 69.4%. In addition, the activity at 1 µM was determined as 155% in the assay with CHO cells (CHO cells stressed with 300 nM Tg, Tg alone 0%, read-out: % Recovery of protein expression (1 μM test compound)) and 162% with CHO cells (unstressed CHO cells, 2 h, read-out: % Protein expression relative to untreated (1 μM test compound)). For the same molecule, the “ATF4 expression normalized to β-actin in hippocampi” value in assay [1] is recorded as “lower levels of ATF4 expression compared with vehicle-treated animals”. For the same molecule, the “RAWM task performance (learning memory)” value in assay [1] is “performed better than vehicle-treated animals”. Further, in the assay with fasted Balb/c mice, the “protein synthesis, puromycin staining in muscle fiber CSA” value is listed as “partial recovery of protein synthesis”.
